US8785655B2, “Ionic liquid solvents” (Dublin City University, priority 2009, dated 2014)

Experiments:
[1] = system: Staphylococcus aureus CCM 4516/08; experiment: Screen against bacteria, MIC/IC80; type: cell-based; conditions: SA
[2] = system: Staphylococcus aureus H 5996/08 Methiciline-resistant; experiment: Screen against bacteria, MIC/IC80; type: cell-based; conditions: MRSA
[3] = system: Staphylococcus epidermidis H 6966/08; experiment: Screen against bacteria, MIC/IC80; type: cell-based; conditions: SE
[4] = system: Enterococcus sp. J 14365/08; experiment: Screen against bacteria, MIC/IC80; type: cell-based; conditions: EF
[5] = system: Escherichia coli CCM4517; experiment: Screen against bacteria, MIC/IC80; type: cell-based; conditions: EC
[6] = system: Klebsiella pneumoniae D 11750/08; experiment: Screen against bacteria, MIC/IC80; type: cell-based; conditions: KP
[7] = system: Klebsiella pneumoniae J 14368/08 ESBL-positive; experiment: Screen against bacteria, MIC/IC80; type: cell-based; conditions: KP-E
[8] = system: Pseudomonas aeruginosa CCM 1961; experiment: Screen against bacteria, MIC/IC80; type: cell-based; conditions: PA
[9] = system: Candida albicans ATCC 44859; experiment: In vitro antifungal activity, MIC by microdilution (NCCLS M27-A)
[10] = system: Candida albicans ATCC 90028; experiment: as above
[11] = system: Candida parapsilosis ATCC 22019; experiment: as above; conditions: CP
Protocol: (§1) In vitro antifungal activities of the compounds were evaluated on the collection of fungal strains deposited at the Department of Biological and Medical Sciences, Faculty of Pharmacy, Charles University, Czech Republic. All the isolates were maintained on Sabouraud dextrose agar prior to being tested.
(§2) Minimum inhibitory concentrations (MICs) were determined by the microdilution format of the NCCLS M27-A guidelines. […] RPMI 1640 (Sevapharma, Prague) medium supplemented with L-glutamine and buffered with 0.165 M morpholinepropanesulfonic acid to pH 7.0 was used as the test medium. The wells of the microdilution tray contained 100 μl of the RPMI 1640 medium with 2-fold serial dilutions of the compounds (1000 to 0.24 μmol/l for the new compounds) and 100 μl of inoculum suspension. Fungal inoculum in RPMI 1640 was prepared to give a final concentration of 5×103±0.2 cfu·ml-1. The trays were incubated at 35° C. and MICs were read visually for filamentous fungi and photometrically for yeasts as an optical density (OD) at 540 nm after 24 h and 48 h. The MICs were defined as 80% inhibition of the growth of control. MICs were determined twice and in duplicate. The deviations from the usually obtained were no higher than the nearest concentration value up and down the dilution scale.

[12] = system: Candida krusei ATCC 6258; experiment: as above
[13] = system: Candida krusei E28; experiment: as above
[14] = system: Candida tropicalis 156; experiment: as above; conditions: CT
[15] = system: Candida glabrata 20/l; experiment: as above; conditions: CG
[16] = system: Candida lusitaniae 2446/l; experiment: as above; conditions: CL
Protocol: as §1, §2

[17] = system: Aspergillus fumigatus 231; experiment: as above; conditions: AF
Protocol: as §1, §2

[18] = system: Absidia corymbifera 272; experiment: as above; conditions: AC
[19] = system: Trichophyton mentagrophytes 445; experiment: as above; conditions: TM

| SMILES | MIC/IC80 ([1]; 24 h) | MIC/IC80 ([1]; 48 h) | MIC/IC80 ([2]; 24 h) | MIC/IC80 ([2]; 48 h) | MIC/IC80 ([3]; 24 h) | MIC/IC80 ([3]; 48 h) | MIC/IC80 ([4]; 24 h) | MIC/IC80 ([4]; 48 h) | MIC/IC80 ([5]; 24 h) | MIC/IC80 ([5]; 48 h) | MIC/IC80 ([6]; 24 h) | MIC/IC80 ([6]; 48 h) | MIC/IC80 ([7]; 24 h) | MIC/IC80 ([7]; 48 h) | MIC/IC80 ([8]; 24 h) | MIC/IC80 ([8]; 48 h) | MIC/IC80 ([9]; CA1, 24 h) | MIC/IC80 ([9]; CA1, 48 h) | MIC/IC80 ([10]; CA2, 24 h) | MIC/IC80 ([10]; CA2, 48 h) | also measured |
| --- | --- | --- | --- | --- | --- | --- | --- | --- | --- | --- | --- | --- | --- | --- | --- | --- | --- | --- | --- | --- | --- |
| CCCCCCCCOS(=O)(=O)[O-].CCOCCOC(=O)C(OC(=O)Cn1cc[n+](C)c1)c1ccccc1 (stereo not drawn) [KG400, RS-3-methyl-1-[1-(ethoxyethoxycarbonyl)-1-phenylmethoxycarbonylmethyl]imidazolium octyl sulphate] | >1000 µM | >1000 µM | >1000 µM | >1000 µM | >1000 µM | >1000 µM | >1000 µM | >1000 µM | >1000 µM | >1000 µM | >1000 µM | >1000 µM | >1000 µM | >1000 µM | >1000 µM | >1000 µM | >1000 µM | >1000 µM | >1000 µM | >1000 µM | MIC/IC80 ([11]; 24 h): >1000 µM; MIC/IC80 ([11]; 48 h): >1000 µM; MIC/IC80 ([12]; CK1, 24 h): >1000 µM; MIC/IC80 ([12]; CK1, 48 h): >1000 µM; MIC/IC80 ([13]; CK2, 24 h): >1000 µM; MIC/IC80 ([13]; CK2, 48 h): >1000 µM; MIC/IC80 ([14]; 24 h): >1000 µM; MIC/IC80 ([14]; 48 h): >1000 µM; MIC/IC80 ([15]; 24 h): >1000 µM; MIC/IC80 ([15]; 48 h): >1000 µM; MIC/IC80 ([16]; 24 h): >1000 µM; MIC/IC80 ([16]; 48 h): >1000 µM; MIC/IC80 ([17]; 24 h): >1000 µM; MIC/IC80 ([17]; 48 h): >1000 µM; MIC/IC80 ([18]; 24 h): >1000 µM; MIC/IC80 ([18]; 48 h): >1000 µM; MIC/IC80 ([19]; 72 h): >1000 µM; MIC/IC80 ([19]; 120 h): >1000 µM |
| CCCCCOC(=O)C(OC(=O)Cn1cc[n+](C)c1)c1ccccc1.[Br-] (stereo not drawn) [KG816, RS-3-methyl-1-[1-(pentoxycarbonyl)-1-phenylmethoxycarbonylmethyl]imidazolium bromide] | 1000 µM | 1000 µM | >1000 µM | >1000 µM | >1000 µM | >1000 µM | >1000 µM | >1000 µM | >1000 µM | >1000 µM | >1000 µM | >1000 µM | >1000 µM | >1000 µM | >1000 µM | >1000 µM | 500 µM | 1000 µM | 1000 µM | >1000 µM | MIC/IC80 ([11]; 24 h): >1000 µM; MIC/IC80 ([11]; 48 h): >1000 µM; MIC/IC80 ([12]; CK1, 24 h): 1000 µM; MIC/IC80 ([12]; CK1, 48 h): 1000 µM; MIC/IC80 ([13]; CK2, 24 h): 1000 µM; MIC/IC80 ([13]; CK2, 48 h): >1000 µM; MIC/IC80 ([14]; 24 h): 1000 µM; MIC/IC80 ([14]; 48 h): >1000 µM; MIC/IC80 ([15]; 24 h): 1000 µM; MIC/IC80 ([15]; 48 h): 1000 µM; MIC/IC80 ([16]; 24 h): >1000 µM; MIC/IC80 ([16]; 48 h): >1000 µM; MIC/IC80 ([17]; 24 h): 1000 µM; MIC/IC80 ([17]; 48 h): 1000 µM; MIC/IC80 ([18]; 24 h): 1000 µM; MIC/IC80 ([18]; 48 h): 1000 µM; MIC/IC80 ([19]; 72 h): 500 µM; MIC/IC80 ([19]; 120 h): 500 µM |
| CCOCCOC(=O)C(OC(=O)Cn1cc[n+](C)c1)c1ccccc1.[Br-] (stereo not drawn) [KG818, RS-3-methyl-1-[1-(ethoxyethoxycarbonyl)-1-phenylmethoxycarbonylmethyl]imidazolium bromide] | >1000 µM | >1000 µM | >1000 µM | >1000 µM | >1000 µM | >1000 µM | >1000 µM | >1000 µM | >1000 µM | >1000 µM | >1000 µM | >1000 µM | >1000 µM | >1000 µM | >1000 µM | >1000 µM | >1000 µM | >1000 µM | >1000 µM | >1000 µM | MIC/IC80 ([11]; 24 h): >1000 µM; MIC/IC80 ([11]; 48 h): >1000 µM; MIC/IC80 ([12]; CK1, 24 h): >1000 µM; MIC/IC80 ([12]; CK1, 48 h): >1000 µM; MIC/IC80 ([13]; CK2, 24 h): >1000 µM; MIC/IC80 ([13]; CK2, 48 h): >1000 µM; MIC/IC80 ([14]; 24 h): >1000 µM; MIC/IC80 ([14]; 48 h): >1000 µM; MIC/IC80 ([15]; 24 h): >1000 µM; MIC/IC80 ([15]; 48 h): >1000 µM; MIC/IC80 ([16]; 24 h): >1000 µM; MIC/IC80 ([16]; 48 h): >1000 µM; MIC/IC80 ([17]; 24 h): >1000 µM; MIC/IC80 ([17]; 48 h): >1000 µM; MIC/IC80 ([18]; 24 h): >1000 µM; MIC/IC80 ([18]; 48 h): >1000 µM; MIC/IC80 ([19]; 72 h): >1000 µM; MIC/IC80 ([19]; 120 h): >1000 µM |
